Experimental data reported in patent US10369093B2, “Stable solution of hexamidine salts in alkanediol-water mixtures, with antimicrobial and skin-moisturising effect” (MINASOLVE GERMANY GMBH, priority 2015, dated 2019).

Assays:
[1] = system: forearms of healthy volunteers (human skin); test: Corneometry test for moisturizing effect; format: in vivo; conditions: 3% in H2O
Protocol: To test the moisturizing effect of various substances and mixtures, the test substances were diluted with distilled water to a concentration of 2-3%. The diluted solutions were applied to the forearms of healthy volunteers (number: 12, age: 19-64 years). Before and after the simple application, the skin moisture of the treated skin areas was measured instrumentally with the aid of a Corneometer CM825, combined with a Cutometer dual MPA 580 from Courage & Khazaka. All measurements were preceded by acclimatization of the subjects in a controlled environment (21° C.±1° C., 45%±10% humidity). The measurement results are given as a percentage change from the initial value after 1 h, 2 h, 4 h, 8 h and 24 h and are summarized in Table 4.

[2] = according to EP1477157B1; cited from earlier work
[3] = BASF data sheet Elestab HP100; cited from earlier work
Staphylococcus aureus = test: Minimum inhibitory concentration, suspension test; format: cell-based; conditions: 3 days at 37° C.
Protocol: (§1) Minimal inhibitory concentrations against bacteria, fungi and yeasts were determined by means of a suspension test. For this purpose, nine-stage dilution series of the respective test substances were prepared in 1:1 mixtures of CASO broth and distilled water. For the tests with mushrooms and yeasts in each case 2% dextrose was added. Each microorganism was tested separately in a test tube containing 10 ml of said culture medium. To each tube was added 0.1 ml of a suspension containing 5×10^8 colony forming units (CFU) for bacteria and 1×10^7 CFU for fungi and yeasts, respectively. Each tube was incubated for 3 days at 37° C. (bacteria) or for 4 days at 30° C. (fungi and yeasts). The minimum inhibitory concentration was defined as the concentration at which no turbidity or other visible signs of microbial growth were observed after the end of the test period.

Escherichia coli = test: Minimum inhibitory concentration, suspension test; format: cell-based; conditions: 3 days at 37° C.
Protocol: as §1

Aspergillus brasiliensis = test: Minimum inhibitory concentration, suspension test; format: cell-based; conditions: 4 days at 30° C.
Protocol: as §1

Pseudomonas aeruginosa = test: Minimum inhibitory concentration, suspension test; format: cell-based; conditions: 3 days at 37° C.
Protocol: as §1

Candida albicans = test: Minimum inhibitory concentration, suspension test; format: cell-based; conditions: 4 days at 30° C.
Protocol: as §1

Row | Minimal Inhibitory Concentration (MIC) (Staphylococcus aureus) [%] | Minimal Inhibitory Concentration (MIC) (Escherichia coli) [%] | Minimal Inhibitory Concentration (MIC) (Aspergillus brasiliensis) [%] | Minimal Inhibitory Concentration (MIC) (Pseudomonas aeruginosa) [%] | Minimal Inhibitory Concentration (MIC) (Candida albicans) [%] | SMILES | corneometry, % change compared to T0 after 1 h [1] | corneometry, % change compared to T0 2 h [1] | corneometry, % change compared to T0 4 h [1] | corneometry, % change compared to T0 8 h [1] | corneometry, % change compared to T0 24 h [1] | C log P [2] | compatible pH range [3]
1 | – | – | – | – | – | OCC(O)CO [glycerin] | +34.3% | +40.2% | +39.5% | +29.9% | +17.5% | – | –
2 | – | – | – | – | – | OCCCCCCCO [1,7-heptanediol] | – | – | – | – | – | +0.46 | –
3 | – | – | – | – | – | CCCCC(O)CO (centres unmarked) [1,2-hexanediol] | – | – | – | – | – | +0.25 | –
4 | 0.0025 | 0.01 | 0.0005 | 0.1 | 0.01 | N=C(N)c1ccc(OCCCCCCOc2ccc(C(=N)N)cc2)cc1 [hexamidine diisethionate, 2-hydroxyethanesulfonic acid-4,4′-[1,6-hexanediylbis(oxy)]dibenzenecarboximidamide] | – | – | – | – | – | – | 3-8
5 | 4.0 | 2.5 | 2.5 | 2.5 | 2.5 | CCCC(O)CO (centres unmarked) [1,2-pentanediol] | +18.8% | +31.6% | +37.7% | +21.6% | +13.1% | – | –
